Laboratory results as given in paper PMC6648297 (ACS Omega, 2019).

Target: Pin1 (Homo sapiens, UniProt Q13526)
Test: SensoLyte Green fluorimetric PPIase activity assay, dose-response
Type: biochemical

Chain of Pin1 (Q13526 whole entry): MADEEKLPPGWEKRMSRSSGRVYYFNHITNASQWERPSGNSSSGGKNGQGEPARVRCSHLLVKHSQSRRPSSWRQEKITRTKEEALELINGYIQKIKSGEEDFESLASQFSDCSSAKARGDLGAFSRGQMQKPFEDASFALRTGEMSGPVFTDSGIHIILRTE

- EC50: ~10 µM
SMILES: CCOC(=O)CN1C(=O)c2ccc3c4c(ccc(c24)C1=O)C(=O)N(CC(=O)OCC)C3=O [PiB]
